Source: patent publication US10611741B2, “Substituted benzoxazine and related compounds” (THE J. DAVID GLADSTONE INSTITUTES, A TESTAMENTARY TRUST …, priority 2014, dated 2020)

Legend:
[1] = tested on: primary neurons transfected with exon 1 of mHtt protein containing 97 poly-glutamines; assay: Neuronal death assay (primary rodent neuron cellular model of HD, survival by robotic microscopy); assay type: cell-based; conditions: for protecting neurons from mHtt toxicity: in words
Procedure: The compounds were tested in a primary rodent neuron cellular model of HD. In this disease model, neurons from the striatum, the site of severe pathology in HD, are transfected with full-length or N-terminal fragments of wild-type Htt or mHtt. The model recapitulates cellular and molecular features seen in HD, including mHtt-dependent neurodegeneration. To use the model in drug discovery, striatal neurons are co-transfected with fluorescently tagged mHtt and marker proteins and examined longitudinally using an automated fluorescent microscopy system (U.S. Pat. No. 7,139,415, incorporated by reference in its entirety). Neurons that express mHtt are periodically imaged, and the loss of fluorescence of the marker protein corresponds to cell death. Importantly, the automated system monitors how mHtt affects neuronal survival by following single cells longitudinally, distinguishing transfected neurons from non-transfected cells. Neurodegeneration is quantified by the difference in survival time between neuronal cells expressing mHtt and neuronal cells expressing wild-type Htt; drugs that increase neuronal survival in neurons expressing mHtt are neuroprotective. Hazard functions are determined by Cox proportional hazards (CPH) analysis to create hazard ratios that are the estimated instantaneous risk of death of individual cells, independent of population size.
Exemplifying compounds were tested for protecting neurons from mHtt toxicity. For this survival assay, primary neurons were transfected with a construct expressing exon 1 of mHtt protein containing 97 poly-glutamines and a fluorescent reporter to track the neurons. Neurons were imaged for 7 days using automated fluorescent robotic microscopy and analyzed for survival. Fluphenazine (Compound N) at 100 nM was used as positive control. DMSO was used as negative control.

[2] = tested on: Rat neurons; assay: Neuron autophagy assay (flux LC3 assay, conversion of photoconvertible reporter); assay type: cell-based; conditions: tested at 5, 10, 50, 200, 500, 1000 nM, overnight treatment, read-out: concentration at which active (neuronal autophagy induction)
Procedure: The induction of neuronal autophagy herein was measured by the conversion of photoconvertible reporter in a flux LC3 assay, as described in Tsvetkov et al., Nature Chemical Biology, 9:586-592 (2013), which is incorporated herein by reference.
mApple, kindly provided by Kurt Thorn of the Nikon microscopy core at UCSFR, was cloned into the pGW1 vector. pGW1-GFP and pGW1-Htt^exl-Q97-GFP were transfected according to normal protocols.
Cell cultures included striata, cortices, and hippocampi from rat embryos or newborn (postnatal day 0) mice were dissected, dissociated, and plated on 96-well tissue culture plates coated with poly-D-lysine and laminin. Cells were cultured for 4 days in neurobasal medium with L-glutamine and B-27 before use.
Rat neurons were transfected with plasmids using lipofectamine, treated overnight with vehicle (DMSO) or 5, 10, 50, 200, 500, and 1000 nM of exemplifying compounds and imaged everyday, once a day, for 7 days. […] Kolmogrov-Smirnov statistics test was used to calculate P values.

[3] = Table 3, dose 200 nM, mHtt neurons, imaged 7 days
[4] = Table 4, dose 50 nM, mHtt neurons, imaged 7 days
[5] = Table 5, dose 10 nM, mHtt neurons, imaged 7 days

Row | SMILES | protecting neurons from mHtt toxicity [1] | minimal effective concentration [2] | Hazard Ratio [1, 4] | further results
1 | Cc1ccc2c(c1)N(CC(=O)N1CCN(C)CC1)CCO2 [E, 2-(6-methyl-2,3-dihydro-4H-benzo[b][1,4]oxazin-4-yl)-1-(4-methylpiperazin-1-yl)ethan-1-one] | active at nM concentrations | < 0.05 µM | – | Hazard Ratio ([1]; Table 3, dose 50 nM, mHtt neurons, imaged 7 days): 0.8952
2 | Cc1ccc2c(c1)N(C(=O)CC1CCN(C)CC1)CCO2 [L, 1-(6-methyl-2,3-dihydro-4H-benzo[b][1,4]oxazin-4-yl)-2-(1-methylpiperidin-4-yl)ethan-1-one] | active at nM concentrations | – | – | Hazard Ratio [1, 3]: 0.9143
3 | Cc1ccc2c(c1)N(CCCN1CCN(C)CC1)CCO2 [C, 6-methyl-4-(3-(4-methylpiperazin-1-yl)propyl)-3,4-dihydro-2H-benzo[b][1,4]oxazine] | – | < 0.05 µM | – | –
4 | Cc1ccc2c(c1)N(CCN1CCN(C)CC1)C(=O)CO2 [G, 6-methyl-4-(2-(4-methylpiperazin-1-yl)ethyl)-2H-benzo[b][1,4]oxazin-3(4H)-one] | – | < 0.05 µM | – | –
5 | Cc1ccc2c(c1)N(C(=O)CN1CCN(C3CCCCC3)CC1)CCO2 [O, 2-(4-cyclohexylpiperazin-1-yl)-1-(6-methyl-2,3-dihydro-1,4-benzoxazin-4-yl)ethanone] | active at nM concentrations | – | 0.5747 | –
6 | OCCN1CCN(CCCN2c3ccccc3Sc3ccc(C(F)(F)F)cc32)CC1 [Compound N, 2-(4-(3-(2-(trifluoromethyl)-10H-phenothiazin-10-yl)propyl)piperazin-1-yl)ethan-1-ol, reference compound] | – | – | – | Hazard Ratio ([1]; Table 3, dose 100 nM, positive control): 0.8553; Hazard Ratio ([1]; Table 4, dose 100 nM, positive control): 0.7018; Hazard Ratio ([1]; Table 5, dose 100 nM, positive control): 0.5273
7 | Cc1ccc2c(c1)N(C(=O)CCN1CCN(C)CC1)CCO2 [A, 1-(6-methyl-2,3-dihydro-4H-benzo[b][1,4]oxazin-4-yl)-3-(4-methylpiperazin-1-yl)propan-1-one] | – | < 0.05 µM | – | –
8 | Cc1ccc2c(c1)N(CCC(=O)N1CCN(C)CC1)CCO2 [F, 3-(6-methyl-2,3-dihydro-4H-benzo[b][1,4]oxazin-4-yl)-1-(4-methylpiperazin-1-yl)propan-1-one] | – | < 0.05 µM | – | –
9 | Cc1ccc2c(c1)N(C(=O)CN1CCN(c3ccccc3)CC1)CCO2 [Compound K, 1-(6-methyl-2,3-dihydro-4H-benzo[b][1,4]oxazin-4-yl)-2-(4-phenylpiperazin-1-yl)ethan-1-one] | active at nM concentrations | – | – | Hazard Ratio [1, 3]: 0.9209
10 | Cc1ccc2c(c1)N(C(=O)CN1CCN(C(C)C)CC1)CCO2 [P, 1-(6-methyl-2,3-dihydro-1,4-benzoxazin-4-yl)-2-(4-propan-2-ylpiperazin-1-yl)ethanone] | active at nM concentrations | – | 0.7384 | Hazard Ratio [1, 5]: 0.6275
11 | Cc1ccc2c(c1)N(C(=O)CN1CCN(C)CC1)CCO2 [B, 1-(6-methyl-2,3-dihydro-4H-benzo[b][1,4]oxazin-4-yl)-2-(4-methylpiperazin-1-yl)ethan-1-one] | – | < 0.05 µM | – | –
12 | Cc1ccc2c(c1)N(CCN1CCN(C)CC1)CCO2 [Compound D, 6-methyl-4-(2-(4-methylpiperazin-1-yl)ethyl)-3,4-dihydro-2H-benzo[b][1,4]oxazine] | active at nM concentrations | < 0.05 µM | – | Hazard Ratio ([1]; Table 3, dose 10 nM, mHtt neurons, imaged 7 days): 0.9161
13 | Cc1ccc2c(c1)N(CC(=O)N1CCN(CCO)CC1)CCO2 [Q, 1-[4-(2-hydroxyethyl)piperazin-1-yl]-2-(6-methyl-2,3-dihydro-1,4-benzoxazin-4-yl)ethanone] | active at nM concentrations | – | 0.5709 | Hazard Ratio [1, 5]: 0.558
14 | Cc1ccc2c(c1)N(CC(=O)N1CCN(CCNS(C)(=O)=O)CC1)CCO2 [Compound S, N-[2-[4-[2-(6-methyl-2,3-dihydro-1,4-benzoxazin-4-yl)acetyl]piperazin-1-yl]ethyl]methanesulfonamide] | active at nM concentrations | – | 0.6953 | –
15 | Cc1ccc2c(c1)N(CC(=O)N1CCN(C)CC1)C(=O)CO2 [I, 6-methyl-4-(2-(4-methylpiperazin-1-yl)-2-oxoethyl)-2H-benzo[b][1,4]oxazin-3(4H)-one] | – | < 0.05 µM | – | –
16 | COCCN1CCN(C(=O)CN2CCOc3ccc(C)cc32)CC1 [R, 1-[4-(2-methoxyethyl)piperazin-1-yl]-2-(6-methyl-2,3-dihydro-1,4-benzoxazin-4-yl)ethanone] | active at nM concentrations | – | 0.7345 | Hazard Ratio [1, 5]: 0.7036
